For five compounds, viability, T/C and IC50 results are on record in PubChem BioAssay AID2060329 (Molecular Pharmacology Branch, DTP, NCI, 2025).

Values joined by “and” are separate entries in the source; they are usually repeats but may differ in a detail not shown here. Identical values can stand only once.

This experiment concerns MCF7 multi-cell spheroids with HUVEC/MSC, viability. Description: Anticancer human tumor MCF7 cell line growth inhibition [IpAb].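 For all read-outs here: spheroids exposed to agents for seven days before readout.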 The following applies: for viability, T/C: stronger effect = lower value. From the text:
Combinatorial screen of targeted agents with ipatasertib and abemaciclib in multi-cell type tumor spheroids
A high-throughput screen of multi-cell type tumor spheroids was designed to identify active combinations of targeted small molecules and ipatasertib or abemaciclib. Complex spheroids include a stromal component modeled by human endothelial cells (HUVEC) and fibroblasts modeled by human mesenchymal stem cells (MSCs). The concentration ranges selected for each drug and investigational agent were based upon clinically achievable concentrations if the clinical Cmax of the agent was known.
Compounds. The drugs and investigational agents: ipatasertib (NSC767898), abemaciclib(NSC768073), selumetinib (NSC741078), trametinib (758246), adavosertib (NSC754352), everolimus (NSC733504), sapanisertib (NSC764658), vemurafenib (NSC761431), venetoclax (NSC766270), copanlisib (NSC809693), apelisib (NSC765974), palbociblib (NSC758247), vemurafenib (NSC761431), dabrafenib (NSC764134), ravoxertinib (NSC781343), BMS-387032 (NSC767048), sotorasib (NSC818433), talazoparib (NSC767125) and afursertib (NSC778305), were obtained from the National Cancer Institute (NCI) Developmental Therapeutics Program Chemical Repository. The FDA-approved anticancer drug set is available from the NCI Developmental Therapeutics Program. […] The stock solutions were prepared in dimethyl sulfoxide (DMSO, Sigma-Aldrich, St. Louis, MO, cat. D2650) at 800-fold the tested concentration and stored at -70 degrees C prior to their use. All drugs and investigational agents were tested over a range starting from a high concentration at or near the clinical Cmax and decreasing in half-log increments. If the clinical Cmax for an agent had not been determined, the highest concentration tested was 10 microM.
NCI60 Cell Culture. NCI60 cell lines were obtained from the NCI Developmental Therapeutics Program Tumor Repository. For each lot of cells, the Repository performed Applied Biosystems AmpFLSTR Identifiler testing with PCR amplification to confirm consistency with the published Identifier STR profile for each cell line. Cells were kept in continuous culture for no more than 20 passages. The optimal seeding densities for each of the cell lines at each time point assessed were determined prior to performing the concentration response studies. Briefly, the NCI60 human tumor lines were grown as monolayers in RPMI 1640 medium supplemented with 10% FBS and 2 mmol/L L-glutamine.
An additional 9 lines were from the NCI60 cell line panel including MDA-MB-231 breast carcinoma, MDA-MB-468 breast carcinoma, MCF7 breast carcinoma, Hs578T breast carcinoma, MALME-3M melanoma, SK-MEL-2 melanoma, SK-OV-3 ovarian carcinoma, DU-145 prostate carcinoma, PC-3 prostate carcinoma, all cell lines along with major genetic alterations are listed on Table 2. Pooled donor human umbilical vein endothelial cells (HUVEC, Lonza, cat. CC-2519) and human mesenchymal stem cells (hMSC, Lonza, cat. PT-2501) were purchased from Lonza (Walkersville, MD).
PDMR cell lines were grown in complete medium (DC medium): Dulbecco's modified Eagle's medium (DMEM)/F12 supplemented with 5% fetal bovine serum (FBS), 2 mM L-glutamine, 100 U/mL penicillin and 100 µg/ml streptomycin, 0.4 µg/ml hydrocortisone, 10 ng/ml epidermal growth factor (EGF) recombinant human protein, 24 µg/mL adenine, and 0.1 mg/mL primocin. During culture from frozen stock vials, PDMR cells were cultured in the same medium containing 10 µM Y-27632 (see Table 3). The PDCs were cultured in complete DMEM/F12 media without 10 microM Y-27632 dihydrochloride for at least two passages prior to the screen. The pooled donor HUVEC and hMSC were cultured in endothelial cell growth medium 2 (PromoCell, Heidelberg, Germany, cat. C-22011) and mesenchymal stem cell growth medium 2 (PromoCell, cat. C-28009), respectively. For all experiments, HUVEC and hMSC were used at passages </=5.
[…]

The mark [1] stands for this setting: curve of first compound, second compound 0.1 µM.
Setting [2] is: curve of first compound, second compound 0.316 µM.
[3] abbreviates: curve of first compound, second compound 1 µM.
Setting [4] is: second compound 0.1 µM, first compound 0.000316 µM.
Setting [5] is: second compound 0.1 µM, first compound 0.001 µM.
Setting [6] is: second compound 0.1 µM, first compound 0.00316 µM.
The mark [7] stands for this setting: second compound 0.1 µM, first compound 0.01 µM.
Setting [8] is: second compound 0.1 µM, first compound 0.0316 µM.
Setting [9] is: second compound 0.1 µM, first compound 0.1 µM.
Setting [10] is: second compound 0.316 µM, first compound 0.000316 µM.
Setting [11] is: second compound 0.316 µM, first compound 0.001 µM.
Where [12] appears, read: second compound 0.316 µM, first compound 0.00316 µM.
Setting [13] is: second compound 0.316 µM, first compound 0.01 µM.
The mark [14] stands for this setting: second compound 0.316 µM, first compound 0.0316 µM.
[15] abbreviates: second compound 0.316 µM, first compound 0.1 µM.
The mark [16] stands for this setting: second compound 1 µM, first compound 0.000316 µM.
[17] abbreviates: second compound 1 µM, first compound 0.001 µM.
Where [18] appears, read: second compound 1 µM, first compound 0.00316 µM.
Where [19] appears, read: second compound 1 µM, first compound 0.01 µM.
Where [20] appears, read: second compound 1 µM, first compound 0.0316 µM.
[21] abbreviates: second compound 1 µM, first compound 0.1 µM.

A word on the viability, T/C: it is the ratio of treated to control. The term IC50 denotes the concentration that inhibits the measured activity by half. `CC1(C)CCC(CN2CCN(c3ccc(C(=O)NS(=O)(=O)c4ccc(NCC5CCOCC5)c([N+](=O)[O-])c4)c(Oc4cnc5[nH]ccc5c4)c3)CC2)=C(c2ccc(Cl)cc2)C1`: the viability, T/C (compound 0.0316 µM) is 88.4% and 102%; the viability, T/C (compound 0.1 µM) was 102% and 108%; the viability, T/C (compound 0.316 µM) is 97.2% and 109%; the viability, T/C (compound 1 µM) was 94.4% and 98.2%; the viability, T/C (compound 3.16 µM) is 84.6% and 98.1%; the viability, T/C (compound 10 µM) was 16.5% and 20.3%. In addition, the IC50 (curve of compound) was 5680 nM and 6450 nM.

For `CC(C)n1nc(-c2ccc3oc(N)nc3c2)c2c(N)ncnc21` + CCN1CCN(Cc2ccc(Nc3ncc(F)c(-c4cc(F)c5nc(C)n(C(C)C)c5c4)n3)nc2)CC1, the concentration for half-maximal inhibition (IC50) (curve of first compound, second compound 0.01 µM) worked out at 10.6 nM; the half-inhibitory concentration (IC50) (curve of first compound, second compound 0.0316 µM) is 7.31 nM; the IC50 under setting [1] was 7.34 nM; the half-maximal inhibitory concentration (IC50) under setting [2] was found to be 14.5 nM; the IC50 under setting [3] amounted to 25.6 nM. The viability, T/C runs as follows: (second compound 0.01 µM, first compound 0.000316 µM) 90.9%; (second compound 0.01 µM, first compound 0.001 µM) 103%; (second compound 0.01 µM, first compound 0.00316 µM) 71.1%; (second compound 0.01 µM, first compound 0.01 µM) 55.6%; (second compound 0.01 µM, first compound 0.0316 µM) 21.6%; (second compound 0.01 µM, first compound 0.1 µM) 11.9%. Also, the viability, T/C by setting is: (second compound 0.0316 µM, first compound 0.000316 µM) 89.3%; (second compound 0.0316 µM, first compound 0.001 µM) 90.2%; (second compound 0.0316 µM, first compound 0.00316 µM) 73.3%; (second compound 0.0316 µM, first compound 0.01 µM) 40.8%; (second compound 0.0316 µM, first compound 0.0316 µM) 21%; (second compound 0.0316 µM, first compound 0.1 µM) 13.8%. The viability, T/C under setting [4] is 95.4%; the viability, T/C under setting [5] is 94%; the viability, T/C under setting [6] was 69.2%; the viability, T/C under setting [7] was 44.6%; the viability, T/C under setting [8] is 19.3%; the viability, T/C under setting [9] is 16.8%. Besides, the viability, T/C is 116% under setting [10]; 101% under setting [11]; 78.2% under setting [12]; 58.8% under setting [13]; 34.4% under setting [14]; 28.7% under setting [15]. The viability, T/C is 102% under setting [16]; 83.1% under setting [17]; 80.6% under setting [18]; 55.3% under setting [19]; 47.8% under setting [20]; 41.6% under setting [21].

With `CC(C)n1nc(-c2ccc3oc(N)nc3c2)c2c(N)ncnc21` + CC(C)NCC(C(=O)N1CCN(c2ncnc3c2C(C)CC3O)CC1)c1ccc(Cl)cc1, the 50% inhibitory concentration (IC50) is 13.9 nM under setting [1]; 8.42 nM under setting [2]; 2.59 nM under setting [3]; 0.594 nM (curve of first compound, second compound 3.16 µM); less than 0.316 nM (curve of first compound, second compound 10 µM). For the same compound, the viability, T/C is, setting by setting: under setting [4], 88.7%; under setting [5], 92.6%; under setting [6], 77.4%; under setting [7], 58.9%; under setting [8], 29.5%; under setting [9], 13.1%. The viability, T/C is, setting by setting: under setting [10], 82.5%; under setting [11], 85.9%; under setting [12], 65.4%; under setting [13], 50.3%; under setting [14], 17.9%; under setting [15], 9.55%. In addition, the viability, T/C under setting [16] was 77.5%; the viability, T/C under setting [17] is 64.8%; the viability, T/C under setting [18] was 48.4%; the viability, T/C under setting [19] is 21.1%; the viability, T/C under setting [20] is 8.63%; the viability, T/C under setting [21] is 6.29%. Besides, the viability, T/C is, setting by setting: (second compound 3.16 µM, first compound 0.000316 µM) 56.1%; (second compound 3.16 µM, first compound 0.001 µM) 42.6%; (second compound 3.16 µM, first compound 0.00316 µM) 36.5%; (second compound 3.16 µM, first compound 0.01 µM) 9.09%; (second compound 3.16 µM, first compound 0.0316 µM) 6.78%; (second compound 3.16 µM, first compound 0.1 µM) 7.35%. The viability, T/C by setting is: (second compound 10 µM, first compound 0.000316 µM) 48.4%; (second compound 10 µM, first compound 0.001 µM) 45.5%; (second compound 10 µM, first compound 0.00316 µM) 17.5%; (second compound 10 µM, first compound 0.01 µM) 8.22%; (second compound 10 µM, first compound 0.0316 µM) 8.47%; (second compound 10 µM, first compound 0.1 µM) 6.95%.

Regarding `Cn1ncnc1[C@H]1c2n[nH]c(=O)c3cc(F)cc(c23)N[C@@H]1c1ccc(F)cc1`, the viability, T/C runs as follows: (compound 0.000316 µM) 139% and 91.4%; (compound 0.001 µM) 97.3% and 97.9%; (compound 0.00316 µM) 92.7% and 90%; (compound 0.01 µM) 90.3% and 100%; (compound 0.0316 µM) 94% and 102%; (compound 0.1 µM) 85.9% and 102%. Moreover, the IC50 (curve of compound) was more than 100 nM.

For `CC(C)(C)c1cnc(CSc2cnc(NC(=O)C3CCNCC3)s2)o1`, the viability, T/C (compound 0.00949 µM) was 105% and 109%; the viability, T/C (compound 0.03 µM) is 100% and 104%; the viability, T/C (compound 0.0949 µM) was 51.5% and 37.9%; the viability, T/C (compound 0.3 µM) is 22% and 24.1%; the viability, T/C (compound 0.949 µM) is 27.4% and 28.2%; the viability, T/C (compound 3 µM) was 35.6% and 32.6%. Moreover, the IC50 (curve of compound) was 100 nM and 76.7 nM.
